For one data set, the target named is T1, AR (Homo sapiens, UniProt P10275).
T1 sequence (P10275 1-920): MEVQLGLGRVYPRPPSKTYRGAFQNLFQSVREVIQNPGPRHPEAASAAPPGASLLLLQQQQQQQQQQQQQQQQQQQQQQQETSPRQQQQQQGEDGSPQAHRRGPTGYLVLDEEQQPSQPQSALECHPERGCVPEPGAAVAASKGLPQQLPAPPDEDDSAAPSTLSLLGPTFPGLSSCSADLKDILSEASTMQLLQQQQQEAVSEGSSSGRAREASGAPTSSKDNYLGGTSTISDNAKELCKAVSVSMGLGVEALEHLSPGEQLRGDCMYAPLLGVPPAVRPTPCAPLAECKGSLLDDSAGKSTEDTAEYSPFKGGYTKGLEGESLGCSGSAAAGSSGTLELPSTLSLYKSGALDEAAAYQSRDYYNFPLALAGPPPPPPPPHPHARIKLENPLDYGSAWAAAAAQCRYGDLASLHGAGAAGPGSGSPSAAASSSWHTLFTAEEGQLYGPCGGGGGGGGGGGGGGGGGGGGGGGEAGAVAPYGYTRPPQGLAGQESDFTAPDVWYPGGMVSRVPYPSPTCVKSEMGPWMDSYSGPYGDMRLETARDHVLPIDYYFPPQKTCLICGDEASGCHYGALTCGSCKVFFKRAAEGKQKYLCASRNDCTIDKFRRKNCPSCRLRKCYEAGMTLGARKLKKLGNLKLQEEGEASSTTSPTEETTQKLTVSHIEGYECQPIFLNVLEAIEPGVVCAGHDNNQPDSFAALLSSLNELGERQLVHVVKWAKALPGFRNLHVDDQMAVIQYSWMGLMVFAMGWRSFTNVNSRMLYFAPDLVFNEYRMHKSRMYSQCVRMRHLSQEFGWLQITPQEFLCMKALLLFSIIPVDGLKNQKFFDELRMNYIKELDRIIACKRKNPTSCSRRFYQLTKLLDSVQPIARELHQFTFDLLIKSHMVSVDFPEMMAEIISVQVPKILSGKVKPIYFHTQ
Kind of data set: Safetyscan47 NHR Nuclear Translocation, Agonist. It counts as cell-based. To be noted: for Emax: read-out: Max Response.

For the next data set, the target named is PDE4D2 (Homo sapiens, UniProt Q08499). In words: Safetyscan47 Non-Kinase Enzymes Enzymatic, Inhibitor. The class given is biochemical. To be noted: for Emax: read-out: Max Response.
Chain of PDE4D2 (Q08499 303-809 limits assumed): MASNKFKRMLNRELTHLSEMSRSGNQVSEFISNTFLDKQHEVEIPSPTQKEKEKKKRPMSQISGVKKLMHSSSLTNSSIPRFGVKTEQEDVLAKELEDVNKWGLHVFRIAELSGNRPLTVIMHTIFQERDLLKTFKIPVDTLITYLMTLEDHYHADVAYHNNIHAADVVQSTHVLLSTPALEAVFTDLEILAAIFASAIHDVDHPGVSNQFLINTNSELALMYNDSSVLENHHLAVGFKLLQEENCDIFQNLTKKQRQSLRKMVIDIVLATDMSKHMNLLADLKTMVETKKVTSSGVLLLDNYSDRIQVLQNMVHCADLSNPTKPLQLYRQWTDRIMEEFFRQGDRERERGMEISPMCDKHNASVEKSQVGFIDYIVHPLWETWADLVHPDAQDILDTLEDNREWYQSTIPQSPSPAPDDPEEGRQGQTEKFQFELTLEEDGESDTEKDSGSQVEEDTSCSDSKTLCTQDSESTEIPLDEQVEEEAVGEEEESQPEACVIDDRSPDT
Another data set deals with T2, COX2 (Homo sapiens, UniProt P35354).
T2 sequence (P35354 18-604): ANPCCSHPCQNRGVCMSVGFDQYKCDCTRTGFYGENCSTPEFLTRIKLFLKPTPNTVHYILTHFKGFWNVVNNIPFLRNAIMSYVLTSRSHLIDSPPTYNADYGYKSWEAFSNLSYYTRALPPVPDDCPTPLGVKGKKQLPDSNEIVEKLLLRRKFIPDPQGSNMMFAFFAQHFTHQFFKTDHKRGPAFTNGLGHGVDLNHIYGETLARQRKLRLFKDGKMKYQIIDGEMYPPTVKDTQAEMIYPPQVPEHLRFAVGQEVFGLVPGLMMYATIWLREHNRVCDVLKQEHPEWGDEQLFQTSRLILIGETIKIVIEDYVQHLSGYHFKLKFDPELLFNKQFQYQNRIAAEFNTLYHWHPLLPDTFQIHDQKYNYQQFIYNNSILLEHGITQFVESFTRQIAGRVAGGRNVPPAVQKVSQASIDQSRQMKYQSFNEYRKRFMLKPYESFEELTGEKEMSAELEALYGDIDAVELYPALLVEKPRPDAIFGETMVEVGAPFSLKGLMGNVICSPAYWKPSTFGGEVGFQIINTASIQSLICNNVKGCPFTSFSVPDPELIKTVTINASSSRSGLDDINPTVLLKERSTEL
Described as above. The class given is biochemical. To be noted: for Emax: read-out: Max Response.

In another data set the target is ADORA2A (Homo sapiens, UniProt P29274). Kind of data set: Safetyscan47 GPCR Calcium Flux, Agonist. To be noted: for Emax: read-out: Max Response. It counts as cell-based.
Chain of ADORA2A (P29274 whole entry): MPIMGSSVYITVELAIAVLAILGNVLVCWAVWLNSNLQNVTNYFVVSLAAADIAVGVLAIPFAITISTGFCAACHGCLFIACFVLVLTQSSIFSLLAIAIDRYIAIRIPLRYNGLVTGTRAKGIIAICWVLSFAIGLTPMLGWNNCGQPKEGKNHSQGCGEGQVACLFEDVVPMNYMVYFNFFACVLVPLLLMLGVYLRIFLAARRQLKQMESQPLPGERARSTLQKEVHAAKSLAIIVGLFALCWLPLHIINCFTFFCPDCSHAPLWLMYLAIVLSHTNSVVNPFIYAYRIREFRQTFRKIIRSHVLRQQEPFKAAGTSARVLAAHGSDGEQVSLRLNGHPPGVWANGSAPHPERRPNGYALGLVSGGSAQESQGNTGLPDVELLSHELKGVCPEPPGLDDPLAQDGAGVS
A further data set deals with DRD1 (Homo sapiens, UniProt P21728). In words: Safetyscan47 GPCR cAMP, Agonist. To be noted: for Emax: read-out: Max Response. It counts as cell-based.
Chain of DRD1 (P21728 whole entry): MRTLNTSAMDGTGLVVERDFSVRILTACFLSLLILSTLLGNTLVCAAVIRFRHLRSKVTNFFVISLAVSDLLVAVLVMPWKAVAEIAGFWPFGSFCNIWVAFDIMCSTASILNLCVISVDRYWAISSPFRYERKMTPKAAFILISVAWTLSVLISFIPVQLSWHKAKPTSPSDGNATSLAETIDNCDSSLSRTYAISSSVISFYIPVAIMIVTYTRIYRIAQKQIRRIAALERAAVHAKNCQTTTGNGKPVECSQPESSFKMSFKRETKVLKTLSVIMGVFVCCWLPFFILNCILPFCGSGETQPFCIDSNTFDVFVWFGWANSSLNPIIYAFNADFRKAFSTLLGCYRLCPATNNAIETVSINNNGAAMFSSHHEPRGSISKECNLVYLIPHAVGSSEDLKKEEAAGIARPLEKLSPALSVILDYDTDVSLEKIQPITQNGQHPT
Another data set deals with carboxypeptidase Y (Saccharomyces cerevisiae, UniProt P00729). Kind of data set: Proteolysis test, carboxypeptidase Y treatment for 4 h, HPLC. The class given is in vitro ADME.
Chain of carboxypeptidase Y (P00729 112-532, species assumed): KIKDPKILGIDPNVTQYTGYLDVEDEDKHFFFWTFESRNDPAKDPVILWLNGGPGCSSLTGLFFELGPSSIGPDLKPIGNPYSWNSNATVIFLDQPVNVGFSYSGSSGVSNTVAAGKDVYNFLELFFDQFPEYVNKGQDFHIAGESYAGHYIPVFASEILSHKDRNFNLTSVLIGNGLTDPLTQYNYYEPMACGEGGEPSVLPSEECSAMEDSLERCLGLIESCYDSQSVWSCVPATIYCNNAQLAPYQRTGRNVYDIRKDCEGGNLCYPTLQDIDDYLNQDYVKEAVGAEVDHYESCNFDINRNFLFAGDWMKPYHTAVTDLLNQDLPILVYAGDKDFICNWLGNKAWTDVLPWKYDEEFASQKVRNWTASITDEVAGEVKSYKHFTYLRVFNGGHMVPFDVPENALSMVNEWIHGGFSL
For the next data set, the target named is integrin αvβ6 (Homo sapiens, UniProt P06756+P18564). In words: ELISA competition assay, integrin αvβ6 binding to LAP. The conditions noted are these: αvβ6 IC50, ELISA competition vs LAP; mean, n ≥ 3.
Chain of integrin αvβ6 (P06756 31-992 limits assumed): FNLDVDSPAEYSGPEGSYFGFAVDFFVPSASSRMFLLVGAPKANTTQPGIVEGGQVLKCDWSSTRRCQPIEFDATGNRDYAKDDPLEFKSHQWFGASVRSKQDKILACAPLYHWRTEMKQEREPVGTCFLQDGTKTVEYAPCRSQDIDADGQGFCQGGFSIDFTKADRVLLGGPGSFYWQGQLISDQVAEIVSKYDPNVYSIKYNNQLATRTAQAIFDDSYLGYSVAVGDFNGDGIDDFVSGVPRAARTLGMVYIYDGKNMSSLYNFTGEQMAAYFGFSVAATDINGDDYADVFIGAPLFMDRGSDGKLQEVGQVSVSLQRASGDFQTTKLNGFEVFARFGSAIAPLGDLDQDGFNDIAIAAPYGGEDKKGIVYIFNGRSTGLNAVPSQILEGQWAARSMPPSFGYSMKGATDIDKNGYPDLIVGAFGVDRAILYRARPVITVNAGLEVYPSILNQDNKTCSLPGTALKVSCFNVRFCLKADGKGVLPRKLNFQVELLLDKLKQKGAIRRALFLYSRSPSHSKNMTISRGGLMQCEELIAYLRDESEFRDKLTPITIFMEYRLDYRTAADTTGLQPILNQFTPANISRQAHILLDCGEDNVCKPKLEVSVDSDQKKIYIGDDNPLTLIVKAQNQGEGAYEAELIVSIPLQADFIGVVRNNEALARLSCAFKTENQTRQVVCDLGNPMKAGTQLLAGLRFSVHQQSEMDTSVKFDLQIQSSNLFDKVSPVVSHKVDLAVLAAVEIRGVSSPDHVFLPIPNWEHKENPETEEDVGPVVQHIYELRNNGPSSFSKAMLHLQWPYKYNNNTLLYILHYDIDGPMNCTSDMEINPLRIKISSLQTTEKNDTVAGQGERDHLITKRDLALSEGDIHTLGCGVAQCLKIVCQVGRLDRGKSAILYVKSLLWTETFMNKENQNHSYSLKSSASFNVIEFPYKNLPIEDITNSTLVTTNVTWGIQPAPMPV
Chain of integrin αvβ6 (P18564 22-707 limits assumed): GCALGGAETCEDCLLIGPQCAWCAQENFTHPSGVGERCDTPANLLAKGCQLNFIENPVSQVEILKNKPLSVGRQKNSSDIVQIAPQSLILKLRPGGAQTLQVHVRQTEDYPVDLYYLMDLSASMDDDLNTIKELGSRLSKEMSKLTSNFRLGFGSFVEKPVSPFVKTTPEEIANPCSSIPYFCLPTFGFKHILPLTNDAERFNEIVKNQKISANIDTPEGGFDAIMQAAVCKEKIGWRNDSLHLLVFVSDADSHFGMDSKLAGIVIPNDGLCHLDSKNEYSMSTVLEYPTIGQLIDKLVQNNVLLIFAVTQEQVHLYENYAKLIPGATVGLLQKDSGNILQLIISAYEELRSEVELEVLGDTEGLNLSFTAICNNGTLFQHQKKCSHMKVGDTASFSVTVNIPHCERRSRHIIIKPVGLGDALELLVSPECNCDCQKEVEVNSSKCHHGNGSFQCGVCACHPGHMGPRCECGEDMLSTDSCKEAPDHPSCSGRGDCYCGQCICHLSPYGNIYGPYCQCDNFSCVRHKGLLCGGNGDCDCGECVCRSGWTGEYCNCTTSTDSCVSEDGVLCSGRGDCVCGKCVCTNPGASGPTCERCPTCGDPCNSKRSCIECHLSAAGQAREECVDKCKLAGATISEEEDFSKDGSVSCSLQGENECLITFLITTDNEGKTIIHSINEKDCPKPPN
In another data set the target is HTR2B (Homo sapiens, UniProt P41595). In words: Safetyscan47 GPCR Calcium Flux, Antagonist. It counts as cell-based. To be noted: for Emax: read-out: Max Response. Background: Calcium assays in cells follow changes in intracellular calcium, usually with a dye or a luminescent sensor.
Chain of HTR2B (P41595 whole entry): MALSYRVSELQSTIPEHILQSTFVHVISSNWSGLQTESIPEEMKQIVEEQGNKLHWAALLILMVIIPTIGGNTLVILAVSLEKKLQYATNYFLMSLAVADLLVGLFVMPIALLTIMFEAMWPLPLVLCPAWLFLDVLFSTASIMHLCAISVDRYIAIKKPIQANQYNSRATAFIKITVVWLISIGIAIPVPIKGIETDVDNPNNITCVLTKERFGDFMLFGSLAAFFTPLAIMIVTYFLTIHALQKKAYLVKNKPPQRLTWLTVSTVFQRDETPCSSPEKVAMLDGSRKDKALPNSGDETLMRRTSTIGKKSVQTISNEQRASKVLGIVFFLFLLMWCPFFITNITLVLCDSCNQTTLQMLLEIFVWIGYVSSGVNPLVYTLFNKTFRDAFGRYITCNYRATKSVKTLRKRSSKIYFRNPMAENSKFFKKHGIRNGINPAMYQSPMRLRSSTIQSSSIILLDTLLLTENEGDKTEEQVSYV
The target in another data set is DAT (Homo sapiens, UniProt Q01959). In words: Safetyscan47 Transporter, Blocker. It counts as cell-based. To be noted: for Emax: read-out: Max Response.
Chain of DAT (Q01959 whole entry): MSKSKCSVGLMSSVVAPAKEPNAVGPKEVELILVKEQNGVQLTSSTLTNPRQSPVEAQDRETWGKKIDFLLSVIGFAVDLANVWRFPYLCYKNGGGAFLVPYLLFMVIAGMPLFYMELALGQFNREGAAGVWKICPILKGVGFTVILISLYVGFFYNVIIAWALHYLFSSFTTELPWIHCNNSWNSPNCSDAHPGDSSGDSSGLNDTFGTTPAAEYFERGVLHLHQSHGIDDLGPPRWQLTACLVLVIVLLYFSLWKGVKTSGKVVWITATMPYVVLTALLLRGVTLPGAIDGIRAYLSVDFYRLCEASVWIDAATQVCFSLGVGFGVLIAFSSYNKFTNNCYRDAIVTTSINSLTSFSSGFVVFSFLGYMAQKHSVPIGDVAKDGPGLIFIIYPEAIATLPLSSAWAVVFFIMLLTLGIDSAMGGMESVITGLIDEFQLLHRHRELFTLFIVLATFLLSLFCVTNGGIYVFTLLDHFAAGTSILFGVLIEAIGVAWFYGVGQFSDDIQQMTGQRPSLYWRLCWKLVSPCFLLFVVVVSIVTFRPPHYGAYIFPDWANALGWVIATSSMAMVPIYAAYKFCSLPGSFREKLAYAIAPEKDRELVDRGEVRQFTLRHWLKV

Bridge positions count the residues as written; N and C are the ends. Side chains are listed from the residue outwards. Peptide text beside a SMILES is read from it. * marks the point of attachment. Butanoyl(4-(4-I-phenyl)) = O=C(CCCc1ccc(I)cc1)*; PEG2 = NCCOCCOCCC(=O)O Bounds are passed on as bounds.

Usually EC50 stands for the concentration that produces a half-maximal response. Usually IC50 stands for the point on the concentration scale where inhibition reaches its midpoint. Take `CC[C@H](C)[C@H](NC(=O)[C@H](CC(C)C)NC(=O)[C@H](CC(=O)O)NC(=O)CNC(=O)[C@H](CCCNC(=N)N)NC(=O)[C@@H](NC(=O)[C@H](Cc1ccccc1)NC(=O)[C@H](Cc1ccc(O)cc1)NC(=O)[C@@H]1CCC(=O)NCC(=O)NCC(=O)N[C@@H](CCCNC(=N)N)C(=O)NCC(=O)N[C@@H](Cc2c[nH]cn2)C(=O)N[C@@H](C(C)C)C(=O)N2CCC[C@H]2C(=O)N1)C(C)C)C(=O)N[C@@H](CO)C(=O)N[C@@H](Cc1ccccc1)C(=O)N[C@@H](Cc1ccc(O)cc1)C(=O)N[C@@H](CCCCN)C(=O)O` [lassotide 36] (GGRGHVPEYFVRGDLISFYK-OH; lactam N-8): the half-maximal effective concentration (EC50) on AR, on ADORA2A and at DRD1 was greater than 45 µM throughout. Further, the Emax at AR was determined as 0%; at PDE4D2 it was 0%; at COX2, 26.5%; at ADORA2A it was 38.9%; at DRD1, 0%; on HTR2B it was 11.8%. In addition, the Emax on DAT was determined as 29.8%. In addition, the IC50 against PDE4D2 is greater than 45 µM; against COX2 it was greater than 45 µM; at integrin αvβ6, 0.012 µM; on HTR2B, greater than 45 µM; against DAT, greater than 45 µM. The “change in HPLC trace after proteolysis” value on carboxypeptidase Y is recorded as “little or no change”.
On to `CC[C@H](C)[C@H](NC(=O)[C@H](CC(C)C)NC(=O)[C@H](CC(=O)O)NC(=O)CNC(=O)[C@H](CCCNC(=N)N)NC(=O)[C@@H](NC(=O)[C@H](Cc1ccccc1)NC(=O)[C@H](Cc1ccc(O)cc1)NC(=O)[C@@H]1CCC(=O)NCC(=O)NCC(=O)N[C@@H](CCCNC(=N)N)C(=O)NCC(=O)N[C@@H](Cc2c[nH]cn2)C(=O)N[C@@H](C(C)C)C(=O)N2CCC[C@H]2C(=O)N1)C(C)C)C(=O)N[C@@H](CO)C(=O)N[C@@H](Cc1ccccc1)C(=O)N[C@@H](Cc1ccc(O)cc1)C(=O)N[C@@H](CCCCNC(=O)CCOCCOCCNC(=O)CCCc1ccc(I)cc1)C(=O)O` [lassotide 47] (GGRGHVPEYFVRGDLISFYK([PEG2-Butanoyl(4-(4-I-phenyl))])-OH; lactam N-8), for which the EC50 on AR, on ADORA2A and on DRD1 was greater than 45 µM each time. In addition, the Emax on AR amounted to 0%; at PDE4D2, 28.5%; on COX2 it was 18.7%; on ADORA2A, 0%; at DRD1, 0%; at HTR2B it was 13.4%. For the same compound, the Emax at DAT came out at 13%. Moreover, the IC50 at PDE4D2 was greater than 45 µM; against COX2, greater than 45 µM; at integrin αvβ6, 0.0032 µM; on HTR2B it was greater than 45 µM; against DAT, greater than 45 µM. The “change in HPLC trace after proteolysis” value on carboxypeptidase Y is listed as “little or no change”.
